# Read-outs that look alike come from different tables or passages of the source.
# Experiments:
# Caco‐2 monolayers = tested on: Caco‐2 monolayers; design: method as in unpublished data; conditions: ref unpublished data; cited from earlier work
# [1] = tested on: organic anion transporting polypeptides; design: method as in unpublished data; conditions: ref unpublished data, read-out: half maximal inhibitory concentration; cited from earlier work
# [2] = tested on: multidrug and toxin extrusion transporters; design: method as in unpublished data; conditions: ref unpublished data, read-out: half maximal inhibitory concentration; cited from earlier work
# [3] = Phase 1 part A: PK after single and multiple once-daily oral doses; type: in vivo, human; conditions: for Dose-normalized AUClast / Dose-normalized AUCτ / Dose-normalized AUC∞ / Dose-normalized Cmax: geometric least squares mean; for concentration at 30 day / Tmax / half-life / AUC / AUC(0-inf) / AUC(0-t) / Cmax: human, plasma
# Method: The study was conducted sequentially in 2 parts. […] Eligible participants were admitted to the clinical unit for single‐dose evaluation from days −2 to 2 and from days 29 to 31 for steady‐state PK and safety evaluation. Participants self‐administered daily doses after an overnight fast of at least 10 hours on days 4 to 30, with outpatient visits on days 3, 4, 7, 14, 21, 32, 33, and 61 (Figure S1).
# For part A, blood samples for PK assessments were collected following administration on days 1 and 30 at 0 (predose), 0.5, 0.75, 1, 1.5, 2, 3, 4, 8, 12, 24, 48, and 72 hours after dosing. In addition, predose PK samples were collected on days 4, 7, 14, and 21. PK parameters following single and multiple once‐daily dosing were evaluated using noncompartmental analysis, including the AUC over a dosing interval (AUCτ), AUC from time 0 to the last time with quantifiable concentration (AUClast), AUC from time 0 to infinite time (AUC∞), maximum plasma concentration (Cmax), minimum plasma concentration, time to maximum plasma concentration (tmax), terminal elimination half‐life (t1/2), apparent total drug clearance following oral administration (CL/F), and predose concentration.
# All statistical analyses were performed using SAS version 9.3 or higher (SAS Institute Inc., Cary, North Carolina). Analysis of PK data was performed using WinNonlin Professional Software version 8.0 or higher (Certara, LP, Princeton, New Jersey). […] Categorical data were summarized by race and treatment group in terms of number of participants with data at relevant time points, frequency counts, and percentages. PK concentrations below the limit of quantification (BLQ) at time 0 on days 1 and 30 were considered 0. Postdose BLQ data were considered missing for PK parameter calculation. For mean concentrations and graphic presentation, all BLQ data were imputed as 0.
# [4] = Multiple dosing (Day 30), Japanese n = 23, 3 dose groups pooled
# [5] = Multiple dosing (Day 30), White n = 24, 3 dose groups pooled
# [6] = Single dose (Day 1), Japanese n = 25, 3 dose groups pooled
# [7] = Single dose (Day 1), White n = 24, 3 dose groups pooled
# [8] = po, 10 mg, Day 1, 10 mg, Japanese, mean (CV%)
# [9] = po, 10 mg, Day 1, 10 mg, White, mean (CV%)
smiles,measurement,setting,value
Cn1c(=O)oc2ccc(-c3ccc(C[C@@H](C#N)NC(=O)[C@@H]4CNCCCO4)cc3)cc21 [Brensocatib],apparent permeability from apical side to basolateral side,Caco‐2 monolayers,9.03 × 10^–6 cm/s
same,IC50,[1],> 11 µM
same,IC50,[2],> 11 µM
same,Mean steady‐state CL/F,"[3]; 10 mg, Japanese",10.1 L/h
same,Mean steady‐state CL/F,"[3]; 10 mg, White",8.5 L/h
same,Mean steady‐state CL/F,"[3]; 25 mg, Japanese",6.4 L/h
same,Mean steady‐state CL/F,"[3]; 25 mg, White",7.0 L/h
same,Mean steady‐state CL/F,"[3]; 40 mg, White",6.5 L/h
same,Ctrough,"[3]; Day 30, 10 mg once daily, Japanese, mean (CV%)",15.64 (48.2) ng/mL
same,Ctrough,"[3]; Day 30, 10 mg once daily, White, mean (CV%)",31.65 (52.6) ng/mL
same,Ctrough,"[3]; Day 30, 25 mg once daily, Japanese, mean (CV%)",93.05 (72.3) ng/mL
same,Ctrough,"[3]; Day 30, 25 mg once daily, White, mean (CV%)",83.24 (48.2) ng/mL
same,Ctrough,"[3]; Day 30, 40 mg once daily, Japanese, mean (CV%)",81.86 (101.6) ng/mL
same,Ctrough,"[3]; Day 30, 40 mg once daily, White, mean (CV%)",92.95 (90) ng/mL
same,Dose-normalized AUClast,[3]; [4],172.9 (ng ‧ h/mL)/mg
same,Dose-normalized AUCτ,[3]; [4],107.6 (ng ‧ h/mL)/mg
same,Dose-normalized AUC∞,[3]; [4],194.9 (ng ‧ h/mL)/mg
same,Dose-normalized Cmax,[3]; [4],8.5 (ng/mL)/mg
same,Dose-normalized AUClast,[3]; [5],243.8 (ng ‧ h/mL)/mg
same,Dose-normalized AUCτ,[3]; [5],144.8 (ng ‧ h/mL)/mg
same,Dose-normalized AUC∞,[3]; [5],285.4 (ng ‧ h/mL)/mg
same,Dose-normalized Cmax,[3]; [5],10.6 (ng/mL)/mg
same,Dose-normalized AUClast,[3]; [6],94.0 (ng ‧ h/mL)/mg
same,Dose-normalized AUCτ,[3]; [6],62.5 (ng ‧ h/mL)/mg
same,Dose-normalized AUC∞,[3]; [6],103.9 (ng ‧ h/mL)/mg
same,Dose-normalized Cmax,[3]; [6],6.1 (ng/mL)/mg
same,Dose-normalized AUClast,[3]; [7],118.8 (ng ‧ h/mL)/mg
same,Dose-normalized AUCτ,[3]; [7],75.4 (ng ‧ h/mL)/mg
same,Dose-normalized AUC∞,[3]; [7],133.9 (ng ‧ h/mL)/mg
same,Dose-normalized Cmax,[3]; [7],6.9 (ng/mL)/mg
same,concentration at 30 day,"[3]; oral, 10 mg, Day 30, 10 mg once daily, Japanese, mean (CV%), read-out: Cavg",43.8 ng/mL
same,concentration at 30 day,"[3]; oral, 10 mg, Day 30, 10 mg once daily, Japanese, mean (CV%), read-out: Cmin",19.6 ng/mL
same,concentration at 30 day,"[3]; oral, 10 mg, Day 30, 10 mg once daily, White, mean (CV%), read-out: Cavg",49.4 ng/mL
same,concentration at 30 day,"[3]; oral, 10 mg, Day 30, 10 mg once daily, White, mean (CV%), read-out: Cmin",26.3 ng/mL
same,concentration at 30 day,"[3]; oral, 25 mg, Day 30, 25 mg once daily, Japanese, mean (CV%), read-out: Cavg",174 ng/mL
same,concentration at 30 day,"[3]; oral, 25 mg, Day 30, 25 mg once daily, Japanese, mean (CV%), read-out: Cmin",98.8 ng/mL
same,concentration at 30 day,"[3]; oral, 25 mg, Day 30, 25 mg once daily, White, mean (CV%), read-out: Cavg",161 ng/mL
same,concentration at 30 day,"[3]; oral, 25 mg, Day 30, 25 mg once daily, White, mean (CV%), read-out: Cmin",93.9 ng/mL
same,concentration at 30 day,"[3]; oral, 40 mg, Day 30, 40 mg once daily, Japanese, mean (CV%), read-out: Cavg",167 ng/mL
same,concentration at 30 day,"[3]; oral, 40 mg, Day 30, 40 mg once daily, Japanese, mean (CV%), read-out: Cmin",77.5 ng/mL
same,concentration at 30 day,"[3]; oral, 40 mg, Day 30, 40 mg once daily, White, mean (CV%), read-out: Cavg",269 ng/mL
same,concentration at 30 day,"[3]; oral, 40 mg, Day 30, 40 mg once daily, White, mean (CV%), read-out: Cmin",149 ng/mL
same,Tmax,"[3]; oral, once‐daily administration, steady state, range over groups, read-out: Tmax",1 to 1.8 h
same,half-life,"[3]; oral, once‐daily administration, steady state, range over groups, read-out: elimination t1/2",21.7 to 27.6 h
same,half-life,"[3]; oral, range over groups (abstract), read-out: Elimination half‐life",22 to 28 h
same,half-life,"[3]; oral, single dose, Japanese participants, range over dose groups, read-out: Elimination t1/2",18.4 to 22.4 h
same,half-life,"[3]; oral, single dose, White participants, range over dose groups, read-out: Elimination t1/2",21.5 to 24.5 h
same,Tmax,"[3]; oral, single‐dose administration, range over groups, read-out: median tmax",1 to 1.5 h
same,half-life,"[3]; oral, steady state, Japanese participants, across the 3 dose groups, read-out: mean t1/2",21.7 to 23.1 h
same,half-life,"[3]; oral, steady state, White participants, across the 3 dose groups, read-out: mean t1/2",22.9 to 27.6 h
same,AUC,[3]; [8],628 ng·h/mL
same,AUC(0-inf),[3]; [8],1030 ng·h/mL
same,AUC(0-t),[3]; [8],943 ng·h/mL
same,Cmax,[3]; [8],64.5 ng/mL
same,half-life,"[3]; po, 10 mg, Day 1, 10 mg, Japanese, mean (CV%), read-out: t1/2 (converted)",18.8 h
same,Tmax,"[3]; po, 10 mg, Day 1, 10 mg, Japanese, median (range), read-out: Tmax",1.02 h
same,AUC,[3]; [9],620 ng·h/mL
same,AUC(0-inf),[3]; [9],1140 ng·h/mL
same,AUC(0-t),[3]; [9],988 ng·h/mL
same,Cmax,[3]; [9],55.9 ng/mL
same,half-life,"[3]; po, 10 mg, Day 1, 10 mg, White, mean (CV%), read-out: t1/2 (converted)",25.7 h
same,Tmax,"[3]; po, 10 mg, Day 1, 10 mg, White, median (range), read-out: Tmax",1.01 h
same,AUC,"[3]; po, 10 mg, Day 30, 10 mg once daily, Japanese, mean (CV%)",1050 ng·h/mL

# Reference: PMC9322451 (Clinical Pharmacology in Drug Development, 2022)
